# Source: patent publication US11117915B2, “Antibacterial aminoglycoside analogs” (Cipla USA, Inc., priority 2007, dated 2021)
# Where two headings read alike, the source gives them in different places.
# Legend:
# E. coli ATCC 25922 = assay: MIC assay, CLSI broth microdilution, E. coli ATCC 25922 (AECO001); format: cell-based; conditions: for MIC: Escherichia coli, read-out: MIC AECO001; for MIC AECO001: Table 3, E. coli ATCC25922
# Experimental: (§1) Minimum inhibitory concentrations (MIC) were determined by reference Clinical and Laboratory Standards Institute (CLSI) broth microdilution methods per M7-A7 [2006]. Quality control ranges utilizing E. coli ATCC 25922, P. aeruginosa ATCC 27853 and S. aureus ATCC 29213, and interpretive criteria for comparator agents were as published in CLSI M100-S17 [2007]. Briefly, serial two-fold dilutions of the test compounds were prepared at 2× concentration in Mueller Hinton Broth. The compound dilutions were mixed in 96-well assay plates in a 1:1 ratio with bacterial inoculum. The inoculum was prepared by suspension of a colony from an agar plate that was prepared the previous day. Bacteria were suspended in sterile saline and added to each assay plate to obtain a final concentration of 5×10^5 CFU/mL. The plates were incubated at 35° C. for 20 hours in ambient air.
# These MIC assays were conducted following the same protocol as set forth in Example 110. As shown, substituted sisomicin derivatives with groups other than methyl at the 6′-position have improved activity against strains expressing the AAC6′-modifying enzymes.
# P. aeruginosa ATCC 27853 = assay: MIC assay, CLSI broth microdilution, P. aeruginosa ATCC 27853 (APAE001); format: cell-based; conditions: Pseudomonas aeruginosa, read-out: MIC APAE001
# Experimental: as §1
# [1] = AECO001 is ATCC25922, 35° C., 20 hours
# [2] = APAE001 is ATCC27853, 35° C., 20 hours
Structure (SMILES),"MIC (E. coli ATCC 25922; ATCC25922, 20 h) [µg/mL]","MIC (P. aeruginosa ATCC 27853; ATCC27853, 20 h) [µg/mL]",MIC (E. coli ATCC 25922; [1]) [µg/mL],MIC AECO001 (E. coli ATCC 25922) [µg/mL],MIC (P. aeruginosa ATCC 27853; [2]) [µg/mL]
"CN[C@@H]1[C@@H](O)[C@@H](O[C@@H]2[C@@H](O)[C@H](O[C@H]3OC(CNCCO)=CC[C@H]3N)[C@@H](N)C[C@H]2NC(=O)[C@H](O)CCN)OC[C@]1(C)O [Example 2, 6′-(2-Hydroxy-ethyl)-1-(4-amino-2(R)-hydroxy-butyryl)-sisomicin]",1 to 16,1 to 16,,,
"CN[C@@H]1[C@@H](O)[C@@H](O[C@@H]2[C@@H](O)[C@H](O[C@H]3OC(CNCC(O)CO)=CC[C@H]3N)[C@@H](N)C[C@H]2NC(=O)[C@H](O)CCN)OC[C@]1(C)O (stereo partly drawn) [Example 3, 6′-(2-Hydroxy-propanol)-1-(4-amino-2(R)-hydroxy-butyryl)-sisomicin]",1 to 16,> 16,,,
"CN[C@@H]1[C@@H](O)[C@@H](O[C@@H]2[C@@H](O)[C@H](O[C@H]3OC(CNCC4CCNCC4)=CC[C@H]3N)[C@@H](N)C[C@H]2NC(=O)[C@H](O)CCN)OC[C@]1(C)O [Example 4, 6′-(Methyl-piperidin-4-yl)-1-(4-amino-2(R)-hydroxy-butyryl)-sisomicin]",1 to 16,1 to 16,,,
"CN[C@@H]1[C@@H](O)[C@@H](O[C@@H]2[C@@H](O)[C@H](O[C@H]3OC(CNCC4CC4)=CC[C@H]3N)[C@@H](N)C[C@H]2NC(=O)[C@H](O)CCN)OC[C@]1(C)O [Example 5, 6′-(Methyl-cyclopropyl)-1-(4-amino-2(R)-hydroxy-butyryl)-sisomicin]",< 1,1 to 16,,,
"CN[C@@H]1[C@@H](O)[C@@H](O[C@@H]2[C@@H](O)[C@H](O[C@H]3OC(CNCCCN)=CC[C@H]3N)[C@@H](N)C[C@H]2NC(=O)[C@H](O)CCN)OC[C@]1(C)O [Example 6, 6′-(3-Amino-propyl)-1-(4-amino-2(R)-hydroxy-butyryl)-sisomicin]",1 to 16,1 to 16,,,
"CN[C@@H]1[C@@H](O)[C@@H](O[C@@H]2[C@@H](O)[C@H](O[C@H]3OC(CNCC4CC4)=CC[C@H]3N)[C@@H](N)C[C@H]2NC(=O)[C@H](O)CN)OC[C@]1(C)O [Example 7, 6′-Methyl-cyclopropyl-1-(3-amino-2(R)-hydroxy-propionyl)-sisomicin]",< 1,1 to 16,,,
"CN[C@@H]1[C@@H](O)[C@@H](O[C@@H]2[C@@H](O)[C@H](O[C@H]3OC(CNCC4CCNCC4)=CC[C@H]3N)[C@@H](N)C[C@H]2NC(=O)[C@H](O)CN)OC[C@]1(C)O [Example 8, 6′-Methyl-piperidinyl-1-(3-amino-2(R)-hydroxy-propionyl)-sisomicin]",< 1,1 to 16,,,
"CN[C@@H]1[C@@H](O)[C@@H](O[C@@H]2[C@@H](O)[C@H](O[C@H]3OC(CNCCO)=CC[C@H]3N)[C@@H](N)C[C@H]2NC(=O)[C@H](O)CN)OC[C@]1(C)O [Example 9, 6′-(2-Hydroxy-ethyl)-1-(3-amino-2(R)-hydroxy-propionyl)-sisomicin]",1 to 16,> 16,,,
"CN[C@@H]1[C@@H](O)[C@@H](O[C@@H]2[C@@H](O)[C@H](O[C@H]3OC(CNCC(O)CO)=CC[C@H]3N)[C@@H](N)C[C@H]2NC(=O)[C@H](O)CN)OC[C@]1(C)O (stereo partly drawn) [Example 10, 6′-(2-Hydroxy-propanol)-1-(3-amino-2(R)-hydroxy-propionyl)-sisomicin]",1 to 16,1 to 16,,,
"CN[C@@H]1[C@@H](O)[C@@H](O[C@@H]2[C@@H](O)[C@H](O[C@H]3OC(CNCCCN)=CC[C@H]3N)[C@@H](N)C[C@H]2NC(=O)[C@H](O)CN)OC[C@]1(C)O [Example 11, 6′-(3-Amino-propyl)-1-(3-amino-2(R)-hydroxy-propionyl)-sisomicin]",< 1,1 to 16,,,
"CN[C@@H]1[C@@H](O)[C@@H](O[C@@H]2[C@@H](O)[C@H](O[C@H]3OC(CNCC4CCNCC4)=CC[C@H]3N)[C@@H](N)C[C@H]2NC(=O)[C@@H](O)CCN)OC[C@]1(C)O [Example 12, 6′-(Methyl-piperidin-4-yl)-1-(4-amino-2(S)-hydroxy-butyryl)-sisomicin]",,,1 to 16,1,1 to 16
"CN[C@@H]1[C@@H](O)[C@@H](O[C@@H]2[C@@H](O)[C@H](O[C@H]3OC(CNCC4CC4)=CC[C@H]3N)[C@@H](N)C[C@H]2NC(=O)[C@@H](O)CN)OC[C@]1(C)O [Example 13, 6′-(Methyl-cyclopropyl)-1-(3-amino-2(S)-hydroxy-propionyl)-sisomicin]",,,1 to 16,1,> 16
"CN[C@@H]1[C@@H](O)[C@@H](O[C@@H]2[C@@H](O)[C@H](O[C@H]3OC(CNCC(O)CO)=CC[C@H]3N)[C@@H](N)C[C@H]2NC(=O)[C@@H](O)CN)OC[C@]1(C)O (stereo partly drawn) [Example 14, 6′-(2-Hydroxy-propanol)-1-(3-amino-2(S)-hydroxy-propionyl)-sisomicin]",1 to 16,1 to 16,,,
"CN[C@@H]1[C@@H](O)[C@@H](O[C@@H]2[C@@H](O)[C@H](O[C@H]3OC(CNCC4CC4)=CC[C@H]3N)[C@@H](N)C[C@H]2NC(=O)[C@@H](O)CCN)OC[C@]1(C)O [Example 18, 6′-(Methyl-cyclopropyl)-1-(4-amino-2(S)-hydroxy-butyryl)-sisomicin]",,,< 1,1,1 to 16
"CN[C@@H]1[C@@H](O)[C@@H](O[C@@H]2[C@@H](O)[C@H](O[C@H]3OC(CNCC(O)CO)=CC[C@H]3N)[C@@H](N)C[C@H]2NC(=O)[C@@H](O)CCN)OC[C@]1(C)O (stereo partly drawn) [Example 19, 6′-(2-Hydroxy-propanol)-1-(4-amino-2(S)-hydroxy-butyryl)-sisomicin]",< 1,1 to 16,,,
"CNCC1=CC[C@@H](N)[C@@H](O[C@H]2C(O)[C@@H](O[C@H]3OC[C@](C)(O)[C@H](NC)[C@H]3O)[C@H](N)C[C@@H]2N)O1 (stereo partly shown) [Mono-substituted Compound 1, reference compound]",,,,1,
"CN[C@@H]1[C@@H](O)[C@@H](O[C@@H]2C(O)[C@H](O[C@H]3OC(CNCC4CC4)=CC[C@H]3N)[C@@H](N)C[C@H]2N)OC[C@]1(C)O (stereo partly shown) [Mono-substituted Compound 2, reference compound]",,,,1,
"CN[C@@H]1[C@@H](O)[C@@H](O[C@@H]2C(O)[C@H](O[C@H]3OC(CNCC4CCNCC4)=CC[C@H]3N)[C@@H](N)C[C@H]2N)OC[C@]1(C)O (stereo partly shown) [Mono-substituted Compound 3, reference compound]",,,,0.5,
"CN[C@@H]1[C@@H](O)[C@@H](O[C@@H]2C(O)[C@H](O[C@H]3OC(CNCCCN)=CC[C@H]3N)[C@@H](N)C[C@H]2N)OC[C@]1(C)O (stereo partly shown) [Mono-substituted Compound 4, reference compound]",,,,2,
"CN[C@@H]1C(O)[C@@H](O[C@@H]2[C@@H](O)[C@H](OC3OC(CN)=CC[C@H]3N)[C@@H](N)C[C@H]2NC(=O)[C@@H](O)CN)OC[C@]1(C)O (stereo partly shown) [Mono-substituted Compound 5, reference compound]",,,,0.5,
"CN[C@@H]1C(O)[C@@H](O[C@@H]2[C@@H](O)[C@H](OC3OC(CN)=CC[C@H]3N)[C@@H](N)C[C@H]2NC(=O)[C@@H](O)CCN)OC[C@]1(C)O (stereo partly shown) [Mono-substituted Compound 6, reference compound]",,,,0.5,
"CN[C@@H]1C(O)[C@@H](O[C@@H]2[C@@H](O)[C@H](OC3OC(CN)=CC[C@H]3N)[C@@H](N)C[C@H]2NC(=O)C2(O)CNC2)OC[C@]1(C)O (stereo partly shown) [Mono-substituted Compound 7, reference compound]",,,,1,
